Experimental data as given in patent USRE47689E1, “Compounds for treating spinal muscular atrophy” (PTC Therapeutics, Inc., priority 2011, dated 2019).

Assays:
[1] = tested on: SMN2 minigene (full length SMN2 minigene mRNA containing SMN2 exon 7); assay: SMN2 minigene mRNA splicing RT-qPCR assay in cultured cells; format: cell-based, human; settings: Homo sapiens, HEK293-H; HEK293H cells stably transfected with SMN2-A minigene; 24 hours; 7-point concentration curve; 1.5-fold relative to vehicle-treated cells; read-out: EC1.5x for production of full length SMN2 mRNA
Method in brief: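 HEK293H cells stably carrying the SMN2-A minigene treated 24 h at 37° C with compound (DMSO, 200× stock), then lysed. Multiplex RT-qPCR (SMN primers 0.4 μM final; 40 cycles) measures full-length exon 7-containing minigene mRNA, normalized to GAPDH and to vehicle; EC1.5x derived and binned by stars.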

Smn protein = Smn protein assay in cultured cells (SMN HTRF); format: cell-based, human; settings: 48 hours; for maximum fold (Fold) increase of Smn protein: SMA patient fibroblast cells, 7-point concentration data, fold increase relative to vehicle control (SMN HTRF); for EC1.5x (concentration giving 1.5-fold Smn protein increase): SMA Type 1 patient fibroblast cells (GM03813), 7-point concentration curve, SMN HTRF, concentration producing 1.5 times Smn protein vs DMSO vehicle control, read-out: EC1.5x for Smn protein expression
Method in brief: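 Lysates in RIPA with protease inhibitors are incubated overnight at room temperature with HTRF anti-SMN antibodies. EC1.5x is derived from fold increase in ΔF over vehicle.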

| Structure (SMILES) | melting point [°C] | EC (1.5-fold) [1] [µM] | maximum fold (Fold) increase of Smn protein (Smn protein) | EC1.5x (concentration giving 1.5-fold Smn protein increase) (Smn protein) [nM] |
| --- | --- | --- | --- | --- |
| O=c1oc2cc(N3CCNCC3)ccc2cc1-c1cc2ccccn2c1 [Cpd 529, 3-(indolizin-2-yl)-7-(piperazin-1-yl)-2H-chromen-2-one] | 186 to 188 | 1 to 3 | * (maximum fold increase of ≤1.2) | – |
| CN1CCN(c2ccc3cc(-c4cn5ccsc5n4)c(=O)oc3c2)CC1 [Cpd 117, 3-(imidazo[2,1-b][1,3]thiazol-6-yl)-7-(4-methylpiperazin-1-yl)-2H-chromen-2-one] | 256 to 258 | 0.1 to 0.3 | **** (fold increase between >1.5 and ≤1.65) | 300 to 1000 |
| CN1CCN(c2ccc3cc(-c4cn5cccc(C(F)(F)F)c5n4)c(=O)oc3c2)CC1 [Compound 210, 7-(4-methylpiperazin-1-yl)-3-[8-(trifluoromethyl)imidazo[1,2-a]pyridin-2-yl]-2H-chromen-2-one] | 235 to 237 | 0.3 to 1 | * (maximum fold increase of ≤1.2) | – |
| Cc1ccc2nc(-c3cc4ccc(N5CC[C@H](NC(=O)OC(C)(C)C)C5)cc4oc3=O)cn2c1 [Compound 177, tert-butyl {(3S)-1-[3-(6-methylimidazo[1,2-a]pyridin-2-yl)-2-oxo-2H-chromen-7-yl]pyrrolidin-3-yl}carbamate] | 225 to 230 | 3 to 30 | * (maximum fold increase of ≤1.2) | – |
| CN1CCN(c2ccc3cc(-c4cn5ccncc5n4)c(=O)oc3c2)CC1 [Compound 457, 3-(imidazo[1,2-a]pyrazin-2-yl)-7-(4-methylpiperazin-1-yl)-2H-chromen-2-one] | 246 to 249 | 0.1 to 0.3 | ** (fold increase between >1.2 and ≤1.35) | – |
| CCN(CC)C1CN(c2ccc3cc(-c4cn5cc(C)nc(C)c5n4)c(=O)oc3c2)C1 [Compound 944, 7-[3-(diethylamino)azetidin-1-yl]-3-(6,8-dimethylimidazo[1,2-a]pyrazin-2-yl)-2H-chromen-2-one] | 218 to 220 | < 0.1 | **** (fold increase between >1.5 and ≤1.65) | 300 to 1000 |
| COc1cccn2cc(-c3cc4ccc(N5CCN(C)CC5)cc4oc3=O)nc12 [Compound 403, 3-(8-methoxyimidazo[1,2-a]pyridin-2-yl)-7-(4-methylpiperazin-1-yl)-2H-chromen-2-one] | 202 to 205 | 3 to 30 | * (maximum fold increase of ≤1.2) | – |
| Cc1cn2cc(-c3cc4ccc(N5CCN6CCCCC6C5)cc4oc3=O)nc2cn1 (centres unmarked) [Compound 635, 3-(6-methylimidazo[1,2-a]pyrazin-2-yl)-7-(octahydro-2H-pyrido[1,2-a]pyrazin-2-yl)-2H-chromen-2-one] | 275 to 277 | < 0.1 | **** (fold increase between >1.5 and ≤1.65) | < 300 |
| Cc1nn2cc(-c3cc4ccc(N5CCCN(C)CC5)cc4oc3=O)nc2s1 [Compound 451, 7-(4-methyl-1,4-diazepan-1-yl)-3-(2-methylimidazo[2,1-b][1,3,4]thiadiazol-6-yl)-2H-chromen-2-one] | 191 to 195 | 1 to 3 | *** (fold increase between >1.35 and ≤1.5) | – |
| C[C@H]1CN(c2cc(F)c3cc(-c4cn5cccc(Cl)c5n4)c(=O)oc3c2)CCN1 [Compound 393, 3-(8-chloroimidazo[1,2-a]pyridin-2-yl)-5-fluoro-7-[(3S)-3-methylpiperazin-1-yl]-2H-chromen-2-one] | 268 to 278 | 0.3 to 1 | *** (fold increase between >1.35 and ≤1.5) | – |
| Cc1cn2cc(-c3cc4ccc(C5CCN(C)CC5)cc4oc3=O)nc2cn1 [Compound 841, 3-(6-methylimidazo[1,2-a]pyrazin-2-yl)-7-(1-methylpiperidin-4-yl)-2H-chromen-2-one] | 266 to 272 | < 0.1 | ***** (fold increase >1.65) | < 300 |
| O=c1oc2cc(N3CCCNCC3)ccc2cc1-c1nc(C(F)(F)F)cs1 [Compound 237, 7-(1,4-diazepan-1-yl)-3-[4-(trifluoromethyl)-1,3-thiazol-2-yl]-2H-chromen-2-one] | 200 | 1 to 3 | * (maximum fold increase of ≤1.2) | – |
| Cc1ccc2nc(-c3cc4ccc(N5CCCNCC5)cc4oc3=O)cn2c1 [Compound 176, 7-(1,4-diazepan-1-yl)-3-(6-methylimidazo[1,2-a]pyridin-2-yl)-2H-chromen-2-one] | 218 to 220 | 1 to 3 | * (maximum fold increase of ≤1.2) | – |
| Cc1ccn2cc(-c3cc4ccc(N5CCCN(C)CC5)cc4oc3=O)nc2c1 [Compound 217, 7-(4-methyl-1,4-diazepan-1-yl)-3-(7-methylimidazo[1,2-a]pyridin-2-yl)-2H-chromen-2-one] | 200 to 206 | 0.3 to 1 | *** (fold increase between >1.35 and ≤1.5) | – |
| CCN1CCN(c2ccc3cc(-c4cc5cc(C)nc(C)c5o4)c(=O)oc3c2)CC1 [Compound 788, 3-(5,7-dimethylfuro[2,3-c]pyridin-2-yl)-7-(4-ethylpiperazin-1-yl)-2H-chromen-2-one] | 196 to 198 | < 0.1 | **** (fold increase between >1.5 and ≤1.65) | < 300 |
| Cc1cc(C)c2nc(-c3cc4ccc(N5CCNCC5)cc4oc3=O)cn2c1 [Compound 260, 3-(6,8-dimethylimidazo[1,2-a]pyridin-2-yl)-7-(piperazin-1-yl)-2H-chromen-2-one] | 219 to 229 | 0.3 to 1 | * (maximum fold increase of ≤1.2) | – |
| C[C@H]1CN(c2ccc3cc(-c4cn5cccc(F)c5n4)c(=O)oc3c2)CCN1C [Compound 585, 7-[(3S)-3,4-dimethylpiperazin-1-yl]-3-(8-fluoroimidazo[1,2-a]pyridin-2-yl)-2H-chromen-2-one] | 188 to 192 | 0.3 to 1 | *** (fold increase between >1.35 and ≤1.5) | – |

Further lines, with some results ahead:

| melting point [°C] | Structure (SMILES) | EC (1.5-fold) [1] [µM] | maximum fold (Fold) increase of Smn protein (Smn protein) | EC1.5x (concentration giving 1.5-fold Smn protein increase) (Smn protein) [nM] |
| --- | --- | --- | --- | --- |
| 255 to 260 | CN1CCCN(c2ccc3cc(-c4cn5cc(F)cc(F)c5n4)c(=O)oc3c2)CC1 [Cpd 520, 3-(6,8-difluoroimidazo[1,2-a]pyridin-2-yl)-7-(4-methyl-1,4-diazepan-1-yl)-2H-chromen-2-one] | 0.3 to 1 | ** (fold increase between >1.2 and ≤1.35) | – |
| 170 to 173 | Cc1cn2cc(-c3cc4ccc(N5CCN6CCC[C@@H]6C5)cc4oc3=O)cc2c(C)n1 [Compound 669, 3-(1,3-dimethylpyrrolo[1,2-a]pyrazin-7-yl)-7-[(8aR)-hexahydropyrrolo[1,2-a]pyrazin-2(1H)-yl]-2H-chromen-2-one] | < 0.1 | ***** (fold increase >1.65) | < 300 |
| 185 to 188 | CN(C)CCN(C)c1ccc2cc(-c3cn4ccsc4n3)c(=O)oc2c1 [Compound 202, 7-{[2-(dimethylamino)ethyl](methyl)amino}-3-(imidazo[2,1-b][1,3]thiazol-6-yl)-2H-chromen-2-one] | 0.3 to 1 | ** (fold increase between >1.2 and ≤1.35) | – |
| 221 to 229 | O=C(O)C(F)(F)F.O=c1oc2cc(N3CCNCC3)ccc2cc1-c1nc(C(F)(F)F)cs1 [Compound 52, 7-(piperazin-1-yl)-3-[4-(trifluoromethyl)-1,3-thiazol-2-yl]-2H-chromen-2-one trifluoroacetate] | 0.3 to 1 | * (maximum fold increase of ≤1.2) | – |
| 209 to 212 | Cc1cn2cc(-c3cc4ccc(N5CCC(N(CCO)CCO)CC5)cc4oc3=O)nc2c(C)n1 [Compound 928, 7-{4-[bis(2-hydroxyethyl)amino]piperidin-1-yl}-3-(6,8-dimethylimidazo[1,2-a]pyrazin-2-yl)-2H-chromen-2-one] | 0.1 to 0.3 | *** (fold increase between >1.35 and ≤1.5) | – |
| 252 to 254 | CN1CCCN(c2ccc3cc(-c4cn5cccnc5n4)c(=O)oc3c2)CC1 [Compound 118, 3-(imidazo[1,2-a]pyrimidin-2-yl)-7-(4-methyl-1,4-diazepan-1-yl)-2H-chromen-2-one] | 0.1 to 0.3 | ***** (fold increase >1.65) | < 300 |
| 186 to 188 | Cc1cn2cc(-c3cc4ccc(CCN5CCNCC5)cc4oc3=O)nc2c(C)n1 [Compound 866, 3-(6,8-dimethylimidazo[1,2-a]pyrazin-2-yl)-7-[2-(piperazin-1-yl)ethyl]-2H-chromen-2-one] | 0.1 to 0.3 | *** (fold increase between >1.35 and ≤1.5) | 300 to 1000 |
